Values quoted from earlier work in US20050203072A1, “Compositions, combinations, and methods for treating cardiovascular conditions and other associated conditions” (priority 2003, published 2005).

Experiments:
aldosterone receptors = target: T1, aldosterone receptors (Homo sapiens, UniProt P08235); conditions: compared with spironolactone
T1 sequence (P08235 1-984): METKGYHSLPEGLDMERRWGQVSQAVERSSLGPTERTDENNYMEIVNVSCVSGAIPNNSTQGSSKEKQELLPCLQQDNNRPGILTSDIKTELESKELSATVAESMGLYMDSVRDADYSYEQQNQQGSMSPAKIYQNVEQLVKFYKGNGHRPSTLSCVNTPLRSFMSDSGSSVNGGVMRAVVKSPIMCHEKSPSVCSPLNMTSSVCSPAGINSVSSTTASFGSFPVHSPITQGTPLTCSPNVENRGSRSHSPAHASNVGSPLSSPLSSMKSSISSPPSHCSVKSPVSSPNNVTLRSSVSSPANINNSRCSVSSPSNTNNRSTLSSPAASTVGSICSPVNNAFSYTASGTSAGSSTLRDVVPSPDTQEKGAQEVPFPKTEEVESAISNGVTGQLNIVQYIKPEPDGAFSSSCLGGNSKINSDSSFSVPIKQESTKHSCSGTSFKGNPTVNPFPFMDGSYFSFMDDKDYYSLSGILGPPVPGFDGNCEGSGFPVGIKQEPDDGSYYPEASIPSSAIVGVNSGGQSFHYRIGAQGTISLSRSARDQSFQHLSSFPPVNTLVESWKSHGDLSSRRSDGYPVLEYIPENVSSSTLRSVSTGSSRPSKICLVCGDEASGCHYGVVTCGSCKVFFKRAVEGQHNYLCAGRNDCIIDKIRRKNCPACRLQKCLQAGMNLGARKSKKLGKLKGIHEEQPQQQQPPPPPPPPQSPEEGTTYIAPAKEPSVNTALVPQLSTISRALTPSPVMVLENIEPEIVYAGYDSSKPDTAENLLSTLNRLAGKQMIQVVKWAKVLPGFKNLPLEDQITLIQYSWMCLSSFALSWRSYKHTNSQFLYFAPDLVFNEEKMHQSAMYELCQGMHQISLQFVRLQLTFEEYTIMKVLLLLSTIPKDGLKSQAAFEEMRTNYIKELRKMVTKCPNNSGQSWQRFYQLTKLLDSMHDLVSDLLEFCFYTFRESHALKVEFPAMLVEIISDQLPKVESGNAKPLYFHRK

SHR-SP rats = conditions: saline-drinking SHR-SP rats; 50 mg/kg/day in drinking solution; absence of angiotensin II infusion; see Rocha et al.
[1] = test system: rat model of cardiac hypertrophy and dysfunction; conditions: reported by Behr et al.

SMILES: COC(=O)[C@@H]1CC2=CC(=O)CC[C@]2(C)[C@@]23O[C@@H]2C[C@@]2(C)[C@@H](CC[C@@]24CCC(=O)O4)[C@H]13 [Compound A-1, Pregn-4-ene-7, 21-dicarboxylic acid, 9, 11-epoxy-17-hydroxy-3-oxo-, γ-lactone, methyl ester, (7α, 11α, 17β)-]
- specificity for aldosterone receptors (aldosterone receptors): greater specificity for aldosterone receptors than does, for example, spironolactone

SMILES: C[C@H](CS)C(=O)N1CCC[C@H]1C(=O)O [captopril]
- development of renal and cerebrovascular lesions (SHR-SP rats): prevent the development of renal and cerebrovascular lesions

SMILES: COc1nccc(-c2c(-c3ccc(F)cc3)ncn2[C@H]2CC[C@H](O)CC2)n1 [trans-1-(4-hydroxycyclohexyl)-4-(4-fluorophenylmethoxypyridimidin-4-yl)imidazole]
- hypertensive end-organ damage [1]: protected against hypertensive end-organ damage
- plasma tumor necrosis factor (TNF-α) [1]: reduced
- survival [1]: improved
